Blank lines part the entries; values can stand above or below the compound they belong to.
Biological target: interaction between p53 and MDM2 proteins (Homo sapiens, UniProt Q00987)
Experiment: HTRF assay of inhibition of p53-MDM2 interaction (GST-MDM2 binding to biotinylated p53 peptide)
Details: recombinant GST-tagged MDM2, biotinylated p53 peptide, 0.2% BSA
Procedure: The ability of the compounds to inhibit the interaction between p53 and MDM2 proteins was measured by an HTRF (homogeneous time-resolved fluorescence) assay in which recombinant GST-tagged MDM2 binds to a peptide that resembles the MDM2-interacting region of p53 (Lane et al.). Binding of GST-MDM2 protein and p53-peptide (biotinylated on its N-terminal end) is registered by the FRET (fluorescence resonance energy transfer) between Europium (Eu)-labeled anti-GST antibody and streptavidin-conjugated Allophycocyanin (APC).
Test is performed in black flat-bottom 384-well plates (Costar) in a total volume of […] containing:90 nM biotinylate peptide, 160 ng/ml GST-MDM2, 20 nM streptavidin-APC (PerkinElmerWallac), 2 nM Eu-labeled anti-GST-antibody (PerkinElmerWallac), 0.2% bovine serum albumin (BSA), 1 mM dithiothreitol (DTT) and 20 mM […] (TBS) buffer as follows: Add 10 uL of GST-MDM2 (640 ng/ml working solution) in reaction buffer to each well. Add 10 uL diluted compounds (1:5 dilution in reaction buffer) to each well, mix by shaking. Add 20 uL biotinylated p53 peptide (180 nM working solution) in reaction buffer to each well and mix on shaker. Incubate at 37° C. for 1 h. Add 20 uL streptavidin-APC and Eu-anti-GST antibody mixture (6 nM Eu-anti-GST and 60 nM streptavidin-APC working solution) in TBS buffer with 0.2% BSA, shake at room temperature for 30 minutes and read using a TRF-capable plate reader at 665 and 615 nm (Victor 5, Perkin ElmerWallac). If not specified, the reagents were purchased from Sigma Chemical Co.

Chain of interaction between p53 and MDM2 proteins (Q00987 whole entry): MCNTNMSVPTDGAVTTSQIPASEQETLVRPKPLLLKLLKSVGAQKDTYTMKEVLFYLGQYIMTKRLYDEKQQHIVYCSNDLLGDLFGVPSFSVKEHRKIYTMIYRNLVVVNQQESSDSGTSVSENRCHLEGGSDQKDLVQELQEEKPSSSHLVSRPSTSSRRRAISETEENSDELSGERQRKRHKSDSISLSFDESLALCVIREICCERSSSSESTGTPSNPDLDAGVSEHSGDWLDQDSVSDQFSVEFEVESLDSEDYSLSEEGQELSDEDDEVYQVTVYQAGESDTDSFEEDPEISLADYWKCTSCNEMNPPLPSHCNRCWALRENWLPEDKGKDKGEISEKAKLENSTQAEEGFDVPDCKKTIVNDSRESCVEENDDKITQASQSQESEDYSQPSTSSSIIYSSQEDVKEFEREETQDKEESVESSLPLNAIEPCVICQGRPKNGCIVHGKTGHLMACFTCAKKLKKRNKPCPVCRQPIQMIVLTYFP

IC50: 252 nM
SMILES: CCOc1nc(C(C)(C)C)ncc1C1=N[C@@](C)(c2ccc(Cl)cc2)[C@@](C)(c2ccc(Cl)cc2)N1C(=O)N1CCC(N2CCCC2)CC1 (racemic) [Example 29, [2-(2-tert-Butyl-4-ethoxy-pyrimidin-5-yl)-4,5-bis-(4-chloro-phenyl)-4,5-dimethyl-4,5-dihydro-imidazol-1-yl]-(4-pyrrolidin-1-yl-piperidin-1-yl)-methanone]

IC50: 77 nM
SMILES: CCOc1nc(C(C)(C)C)ncc1C1=N[C@@](C)(c2ccc(Cl)cc2)[C@@](C)(c2ccc(Cl)cc2)N1C(=O)N1CCN(CC(=O)N2CCOCC2)CC1 (racemic) [Example 40, Rac-2-{4-[(4S*,5R*)-2-(2-tert-Butyl-4-ethoxy-pyrimidin-5-yl)-4,5-bis-(4-chloro-phenyl)-4,5-dimethyl-4,5-dihydro-imidazole-1-carbonyl]-piperazin-1-yl}-1-morpholin-4-yl-ethanone]

Further lines, the compound ahead of its results:

SMILES: CCOc1nc(C(C)(C)C)ncc1C1=N[C@@](C)(c2ccc(Cl)cc2)[C@@](C)(c2ccc(Cl)cc2)N1C(=O)N1CCN(C2CCS(=O)(=O)CC2)CC1 [Example 4, [(4S,5R)-2-(2-tert-Butyl-4-ethoxy-pyrimidin-5-yl)-4,5-bis-(4-chloro-phenyl)-4,5-dimethyl-4,5-dihydro-imidazol-1-yl]-[4-(1,1-dioxo-hexahydro-thiopyran-4-yl)-piperazin-1-yl]-methanone]
IC50: 46 nM

SMILES: CCOc1nc(C(C)(C)C)ncc1C1=N[C@@](C)(c2ccc(Cl)cc2)[C@@](C)(c2ccc(Cl)cc2)N1C(=O)N1CCN(CCOCCO)CC1 [Example 22, [(4S,5R)-2-(2-tert-Butyl-4-ethoxy-pyrimidin-5-yl)-4,5-bis-(4-chloro-phenyl)-4,5-dimethyl-4,5-dihydro-imidazol-1-yl]-{4-[2-(2-hydroxy-ethoxy)-ethyl]-piperazin-1-yl}-methanone]
IC50: 31 nM

SMILES: CCOc1nc(C(C)(C)C)ccc1C1=N[C@@](C)(c2ccc(Cl)cc2)[C@@](C)(c2ccc(Cl)cc2)N1C(=O)N1CCN(CCCS(C)(=O)=O)CC1 (racemic) [Example 9, Rac-[(4S*,5R*)-2-(6-tert-Butyl-2-ethoxy-pyridin-3-yl)-4,5-bis-(4-chloro-phenyl)-4,5-dimethyl-4,5-dihydro-imidazol-1-yl]-[4-(3-methanesulfonyl-propyl)-piperazin-1-yl]-methanone]
IC50: 178 nM

Reference: patent publication US8513239B2, “Chiral cis-imidazolines” (Hoffmann-La Roche Inc., priority 2007, dated 2013)
